Data on 62 compounds can be found in ChEMBL document CHEMBL3879881, “Substituted pyrazolyl compounds for the treatment of inflammation” (2005).

The assay has as its target T1, Inhibitor of nuclear factor kappa-B kinase subunit beta (Homo sapiens, UniProt O14920).
T1 sequence (O14920 whole entry): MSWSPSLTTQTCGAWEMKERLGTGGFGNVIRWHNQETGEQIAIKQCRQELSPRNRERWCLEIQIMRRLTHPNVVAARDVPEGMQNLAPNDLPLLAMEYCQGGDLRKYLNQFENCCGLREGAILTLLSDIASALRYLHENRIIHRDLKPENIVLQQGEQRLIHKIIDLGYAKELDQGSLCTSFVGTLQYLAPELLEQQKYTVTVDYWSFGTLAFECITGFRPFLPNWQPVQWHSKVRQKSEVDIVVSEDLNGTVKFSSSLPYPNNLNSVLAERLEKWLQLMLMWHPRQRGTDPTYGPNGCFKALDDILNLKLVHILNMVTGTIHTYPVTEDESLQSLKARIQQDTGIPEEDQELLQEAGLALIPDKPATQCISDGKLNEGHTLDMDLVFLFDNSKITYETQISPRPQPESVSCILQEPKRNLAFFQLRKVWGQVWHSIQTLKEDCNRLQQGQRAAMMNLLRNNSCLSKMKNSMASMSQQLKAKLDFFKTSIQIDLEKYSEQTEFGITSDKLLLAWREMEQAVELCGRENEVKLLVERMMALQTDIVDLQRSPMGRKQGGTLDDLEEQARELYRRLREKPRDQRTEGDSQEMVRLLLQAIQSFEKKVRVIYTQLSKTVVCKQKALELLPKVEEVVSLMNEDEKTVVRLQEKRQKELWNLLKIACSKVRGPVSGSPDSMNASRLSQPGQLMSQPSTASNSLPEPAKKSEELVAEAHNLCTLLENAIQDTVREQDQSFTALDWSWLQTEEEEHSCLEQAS
Kind of assay: Inhibition of human recombinant C-terminal FLAG-epitope-tagged IKK2 expressed in baculovirus using biotinylated IkappaBalpha peptide as substrate assessed as decrease in [gamma-33P]-ATP incorporation in substrate after 30 mins by scintillation counting method.

The structures appear in SMILES notation. pIC50: −log10 of the molar value.

In the case of `NC(=O)c1nn(-c2ccc(OCC(O)CO)cc2)c2c1CCc1ccc(NC(=O)c3cccnc3Cl)cc1-2` (configuration not stated), the pIC50 was at least 6.00.

Take `CN(C)CCOc1ccc(Cl)c(C(=O)Nc2ccc3c(c2)-c2c(c(C(N)=O)nn2-c2ccc4c(c2)OCO4)CC3)c1`: the pIC50 is 5.00 to 6.00.

With `CS(=O)(=O)c1ccc(-n2nc(C(N)=O)c3c2-c2cc(NC(=O)C4CCC4)ccc2CC3)cc1`, the pIC50 is 5.00 to 6.00.

Regarding `CN(C)CCOc1ccc(-n2nc(C(N)=O)c3c2-c2cc(NC(=O)c4ccccc4Cl)ccc2CC3)cc1`, the pIC50 is 5.00 to 6.00.

Turning to `COc1cccc(C(=O)Nc2ccc3c(c2)-c2c(c(C(N)=O)nn2-c2ccc(S(C)(=O)=O)cc2)CC3)c1`, the pIC50 was 5.00 to 6.00.

Regarding `C[S+]([O-])c1ccc(Cl)c(C(=O)Nc2ccc3c(c2)-c2c(c(C(N)=O)nn2-c2ccc4c(c2)OCO4)CC3)c1` (configuration not stated), the pIC50 is at least 6.00.

As to `CS(=O)(=O)c1ccc(-n2nc(C(N)=O)c3c2-c2cc(NC(=O)[C@@H](N)Cc4c[nH]cn4)ccc2CC3)cc1`, the pIC50 is 5.00 to 6.00.

`CS(=O)(=O)c1ccc(-n2nc(C(N)=O)c3c2-c2cc(NC(=O)c4cnccc4Cl)ccc2CC3)cc1`: the pIC50 was 5.00 to 6.00.

`Cc1nnsc1C(=O)Nc1ccc2c(c1)-c1c(c(C(N)=O)nn1-c1ccc3c(c1)OCO3)CC2`: the pIC50 is 5.00 to 6.00.

With `Cc1cccc(C(=O)Nc2ccc3c(c2)-c2c(c(C(N)=O)nn2-c2ccc(S(C)(=O)=O)cc2)CC3)c1`, the pIC50 was 5.00 to 6.00.

Regarding `CSc1ccccc1C(=O)Nc1ccc2c(c1)-c1c(c(C(N)=O)nn1-c1ccc(S(C)(=O)=O)cc1)CC2`, the negative-log IC50 (pIC50) was 5.00 to 6.00.

As to `CS(=O)(=O)c1ccc(-n2nc(C(N)=O)c3c2-c2cc(NC(=O)c4cc(Cl)ccc4N)ccc2CC3)cc1`, the pIC50 is 5.00 to 6.00.

Regarding `CS(=O)(=O)Nc1ccc2c(c1)-c1c(c(C(N)=O)nn1-c1ccc(F)cc1)CC2`, the pIC50 is 5.00 to 6.00.

For the compound `NC(=O)c1nn(-c2ccc3c(c2)OCO3)c2c1CCc1ccc(NC(=O)c3cc(Cl)ncc3Cl)cc1-2`, the pIC50 was at least 6.00.

Regarding `CN1CCN(c2ccc(Cl)c(C(=O)Nc3ccc4c(c3)-c3c(c(C(N)=O)nn3-c3ccc(S(C)(=O)=O)cc3)CC4)c2)CC1`, the pIC50 was over 6.00.

`CN(C)CC(=O)Nc1ccc(C(=O)Nc2ccc3c(c2)-c2c(c(C(N)=O)nn2-c2ccc4c(c2)OCO4)CC3)c(Cl)c1`: the pIC50 was 5.00 to 6.00.

For `CC1(C)OCC(COc2ccc(-n3nc(C(N)=O)c4c3-c3cc(NC(=O)c5ccc(S(C)(=O)=O)cc5Cl)ccc3CC4)cc2)O1` (configuration not stated), the pIC50 is 5.00 to 6.00.

Take `NC(=O)c1nn(-c2ccc(F)cc2)c2c1CCc1ccc(NC(=O)c3cc(Cl)ncc3Cl)cc1-2`: the pIC50 was at least 6.00.

Take `Cc1ncccc1C(=O)Nc1ccc2c(c1)-c1c(c(C(N)=O)nn1-c1ccc3c(c1)OCO3)CC2`: the pIC50 is 5.00 to 6.00.

As to `CS(=O)(=O)c1ccc(-n2nc(C(N)=O)c3c2-c2cc(NC(=O)c4cc(S(C)(=O)=O)ccc4Cl)ccc2CC3)cc1`, the pIC50 was at least 6.00.

Regarding `NC(=O)c1nn(-c2ccc3c(c2)OCO3)c2c1CCc1ccc(NC(=O)c3ccoc3)cc1-2`, the pIC50 was 5.00 to 6.00.

In the case of `CS(=O)(=O)c1ccc(-n2nc(C(N)=O)c3c2-c2cc(NC(=O)Cc4ccccc4)ccc2CC3)cc1`, the pIC50 is 5.00 to 6.00.

On to `C[S+]([O-])c1ccc(Cl)c(C(=O)Nc2ccc3c(c2)-c2c(c(C(N)=O)nn2-c2ccc(S(C)(=O)=O)cc2)CC3)c1` (configuration not stated), for which the negative-log IC50 (pIC50) is at least 6.00.

Consider `CS(=O)(=O)c1ccc(C(=O)Nc2ccc3c(c2)-c2c(c(C(N)=O)nn2-c2ccc(OCC(O)CO)cc2)CC3)c(Cl)c1` (configuration not stated), for which the pIC50 was at least 6.00.

With `CC1(C)OCC(COc2ccc(-n3nc(C(N)=O)c4c3-c3cc(NC(=O)c5ccccc5Cl)ccc3CC4)cc2)O1` (configuration not stated), the pIC50 is at least 6.00.

For the compound `NC(=O)c1nn(-c2ccc(OCC(O)CO)cc2)c2c1CCc1ccc(NC(=O)c3cc(N)ccc3Cl)cc1-2` (configuration not stated), the pIC50 was at least 6.00.

For the compound `Cc1c(O)cccc1C(=O)Nc1ccc2c(c1)-c1c(c(C(N)=O)nn1-c1ccc(S(C)(=O)=O)cc1)CC2`, the pIC50 is at least 6.00.

On to `Cc1ccn2c(C)c(C(=O)Nc3ccc4c(c3)-c3c(c(C(N)=O)nn3-c3ccc(S(C)(=O)=O)cc3)CC4)nc2c1`, for which the pIC50 was 5.00 to 6.00.

As to `CS(=O)(=O)c1ccc(-n2nc(C(N)=O)c3c2-c2cc(NC(=O)c4cc(N=[N+]=[N-])ccc4[N+](=O)O)ccc2CC3)cc1`, the pIC50 was at least 6.00.

As to `CN(C)CCCOc1ccc(-n2nc(C(N)=O)c3c2-c2cc(NC(=O)c4ccccc4Cl)ccc2CC3)cc1`, the pIC50 was 5.00 to 6.00.

On to `Cc1c(C(=O)Nc2ccc3c(c2)-c2c(c(C(N)=O)nn2-c2ccc(S(C)(=O)=O)cc2)CC3)cccc1[N+](=O)[O-]`, for which the pIC50 is 5.00 to 6.00.

In the case of `Cc1cccc(C(=O)Nc2ccc3c(c2)-c2c(c(C(N)=O)nn2-c2ccc(S(C)(=O)=O)cc2)CC3)c1C`, the pIC50 is 5.00 to 6.00.

As for `Cc1cccc(C(=O)Nc2ccc3c(c2)-c2c(c(C(N)=O)nn2-c2ccc(S(C)(=O)=O)cc2)CC3)c1[N+](=O)[O-]`, the pIC50 was 5.00 to 6.00.

Regarding `CC(=O)Oc1cccc(C(=O)Nc2ccc3c(c2)-c2c(c(C(N)=O)nn2-c2ccc(S(C)(=O)=O)cc2)CC3)c1C`, the pIC50 is 5.00 to 6.00.

Regarding `N#Cc1ccc(C(=O)Nc2ccc3c(c2)-c2c(c(C(N)=O)nn2-c2ccc4c(c2)OCO4)CC3)cc1`, the pIC50 was 5.00 to 6.00.

In the case of `C[S+]([O-])c1ccc(Cl)c(C(=O)Nc2ccc3c(c2)-c2c(c(C(N)=O)nn2-c2ccc(F)cc2)CC3)c1` (configuration not stated), the pIC50 is at least 6.00.

In the case of `Cc1ccccc1C(=O)Nc1ccc2c(c1)-c1c(c(C(N)=O)nn1-c1ccc3c(c1)OCO3)CC2`, the pIC50 is 5.00 to 6.00.

Consider `CSc1ncc(Cl)c(C(=O)Nc2ccc3c(c2)-c2c(c(C(N)=O)nn2-c2ccc4c(c2)OCO4)CC3)n1`, for which the pIC50 was at least 6.00.

Take `NC(=O)c1nn(-c2ccc3c(c2)OCO3)c2c1CCc1ccc(NC(=O)c3cccc(O)n3)cc1-2`: the pIC50 was 5.00 to 6.00.

`NC(=O)c1nn(-c2ccc(F)cc2)c2c1CCc1ccc(NC(=O)c3ccncc3)cc1-2`: the pIC50 was 5.00 to 6.00.

Turning to `NC(=O)c1nn(-c2ccc3c(c2)OCO3)c2c1CCc1ccc(NC(=O)c3ccccc3OC(F)(F)F)cc1-2`, the pIC50 was 5.00 to 6.00.

For the compound `NC(=O)c1nn(-c2ccc(F)cc2)c2c1CCc1ccc(NC(=O)c3cc4c(cc3Cl)OCO4)cc1-2`, the negative-log IC50 (pIC50) was at least 6.00.

As for `COc1ccc([N+](=O)[O-])c(C(=O)Nc2ccc3c(c2)-c2c(c(C(N)=O)nn2-c2ccc4c(c2)OCO4)CC3)c1`, the pIC50 was 5.00 to 6.00.

For the compound `NC(=O)c1nn(-c2ccc(OCc3ccccc3)cc2)c2c1CCc1ccc(NC(=O)c3cccnc3Cl)cc1-2`, the pIC50 was 5.00 to 6.00.

As for `CN1CCN(c2ccc(Cl)c(C(=O)Nc3ccc4c(c3)-c3c(c(C(N)=O)nn3-c3ccc5c(c3)OCO5)CC4)c2)CC1`, the pIC50 is at least 6.00.

`NC(=O)c1nn(-c2ccc3c(c2)OCO3)c2c1CCc1ccc(NC(=O)c3nc(Cl)ccc3Cl)cc1-2`: the pIC50 was 5.00 to 6.00.

For `NC(=O)c1nn(-c2ccc3c(c2)OCO3)c2c1CCc1ccc(NC(=O)c3cc[n+]([O-])cc3)cc1-2`, the pIC50 was 5.00 to 6.00.

For the compound `COc1ccc(CNc2ncccc2C(=O)Nc2ccc3c(c2)-c2c(c(C(N)=O)nn2-c2ccc4c(c2)OCO4)CC3)cc1`, the pIC50 was 4.00 to 5.00.

`NC(=O)c1nn(-c2ccc(OCC(O)CO)cc2)c2c1CCc1ccc(NC(=O)c3ccccc3Cl)cc1-2` (configuration not stated): the pIC50 was at least 6.00.

In the case of `NC(=O)c1nn(-c2ccc(OCC(O)CO)cc2)c2c1CCc1ccc(NC(=O)c3ccncc3Cl)cc1-2` (configuration not stated), the pIC50 was at least 6.00.

On to `CC(=O)c1ccc(C(=O)Nc2ccc3c(c2)-c2c(c(C(N)=O)nn2-c2ccc4c(c2)OCO4)CC3)cc1`, for which the negative-log IC50 (pIC50) is 5.00 to 6.00.

Regarding `NC(=O)c1nn(-c2ccc3c(c2)OCO3)c2c1CCc1ccc(NC(=O)c3ccc(Cl)c(N)c3)cc1-2`, the pIC50 was 5.00 to 6.00.

Consider `NC(=O)c1nn(-c2ccc3c(c2)OCO3)c2c1CCc1ccc(NC(=O)c3cc(Cl)cnc3Cl)cc1-2`, for which the pIC50 was at least 6.00.

Regarding `CS(=O)(=O)c1ccc(-n2nc(C(N)=O)c3c2-c2cc(NC(=O)c4ccccc4N)ccc2CC3)cc1`, the pIC50 was 5.00 to 6.00.

As for `CS(=O)(=O)c1ccc(-n2nc(C(N)=O)c3c2-c2cc(NC(=O)c4cn[nH]c4)ccc2CC3)cc1`, the negative logarithm of the IC50 (pIC50) is 5.00 to 6.00.

For the compound `CN(C)CCN(C)c1cc(C(=O)Nc2ccc3c(c2)-c2c(c(C(N)=O)nn2-c2ccc(F)cc2)CC3)c(Cl)cn1`, the pIC50 was at least 6.00.

For the compound `NC(=O)c1nn(-c2ccc3c(c2)OCO3)c2c1CCc1ccc(NC(=O)c3cccnc3N)cc1-2`, the pIC50 is 5.00 to 6.00.

In the case of `NC(=O)c1nn(-c2ccc3c(c2)OCO3)c2c1CCc1ccc(NC(=O)c3cc(N4CCNCC4)ncc3Cl)cc1-2`, the pIC50 was at least 6.00.

On to `CN1CCCN(c2cc(C(=O)Nc3ccc4c(c3)-c3c(c(C(N)=O)nn3-c3ccc(F)cc3)CC4)c(Cl)cn2)CC1`, for which the pIC50 was at least 6.00.

For `CN1CCN(c2cc(C(=O)Nc3ccc4c(c3)-c3c(c(C(N)=O)nn3-c3ccc(F)cc3)CC4)c(Cl)cn2)CC1`, the pIC50 is at least 6.00.

On to `CN1CCN(c2cc(C(=O)Nc3ccc4c(c3)-c3c(c(C(N)=O)nn3-c3ccc5c(c3)OCO5)CC4)c(Cl)cn2)CC1`, for which the pIC50 was at least 6.00.

Turning to `NC(=O)c1nn(-c2ccc(F)cc2)c2c1CCc1ccc(NC(=O)c3nc(N4CCOCC4)ccc3Cl)cc1-2`, the pIC50 was 5.00 to 6.00.
